Experimental data reported in US8802678B2, “Carbonylated (aza) cyclohexanes as dopamine D3 receptor ligands” (Bioprojet, priority 2006, dated 2014).

| Structure (SMILES) | melting point |
| --- | --- |
| O=C(N[C@H]1CC[C@H](CCN2CCN(c3ccccc3F)CC2)CC1)C1CC=CC1 [Example 70, Cyclopent-3-enecarboxylic acid (4-{2-[4-(2-fluorophenyl)-piperazin-1-yl]ethyl}-cyclohexyl)amide trans/cis 95/5] | 204 °C |
| O=C(N[C@H]1CC[C@H](CCN2CCN(c3ccc(F)cc3F)CC2)CC1)C1=CCCCC1 [Example 71, Cyclohex-1-enecarboxylic acid (4-{2-[4-(2,4-difluorophenyl)-piperazin-1-yl]ethyl}-cyclohexyl)amide] | 203 °C |
| CCOCC(=O)N[C@H]1CC[C@H](CCN2CCN(c3ccccc3C#N)CC2)CC1 [Example 73, N-(4-{2-[4-(2-Cyanophenyl)-piperazin-1-yl]ethyl}cyclohexyl)-2-ethoxyacetamide] | 96 °C |
| COC(C)(C)C(=O)N[C@H]1CC[C@H](CCN2CCN(c3cccc(C(F)(F)F)c3)CC2)CC1 [Example 77, 2-Methoxy-2-methyl-N-(4-{2-[4-(3-trifluoromethylphenyl)-piperazin-1-yl]ethyl}cyclohexyl)-propanamide] | 105 °C |
| CCOCC(=O)N[C@H]1CC[C@H](CCN2CCN(c3cccc(C#N)c3)CC2)CC1 [Example 78, N-(4-{2-[4-(3-Cyanophenyl)-piperazin-1-yl]ethyl}cyclohexyl)-2-ethoxyacetamide trans/cis 75/25] | 90 °C |
| N#CCC(=O)N[C@H]1CC[C@H](CCN2CCN(c3ccccc3F)CC2)CC1 [Example 79, 2-Cyano-N-(4-{2-[4-(2-fluorophenyl)piperazin-1-yl]ethyl}cyclohexyl)acetamide] | 179 to 180 °C |
| CSCC(=O)N[C@H]1CC[C@H](CCN2CCN(c3cccc(C(F)(F)F)c3)CC2)CC1 [Example 80, 2-Methylsulfanyl-N-(4-{2-[4-(3-trifluoromethylphenyl)piperazin-1-yl]ethyl}cyclohexyl)acetamide] | 128 °C |
| COCCCC(=O)N[C@H]1CC[C@H](CCN2CCC(c3cccc(C(F)(F)F)c3)CC2)CC1 [Example 84, 4-Methoxy-N-(4-{2-[4-(3-trifluoromethylphenyl)piperidin-1-yl]ethyl}cyclohexyl)butanamide] | 134 °C |
| COCC(=O)N[C@H]1CC[C@H](CCN2CCN(c3cccc(C#N)c3)CC2)CC1 [Example 86, N-(4-{2-[4-(3-Cyanophenyl)piperazin-1-yl]ethyl}cyclohexyl)-2-methoxyacetamide] | 138 °C |
| CCC(=O)C(=O)N[C@H]1CC[C@H](CCN2CCN(c3ccccc3F)CC2)CC1 [Example 89, N-(4-{2-[4-(2-Fluorophenyl)-piperazin-1-yl]ethyl}cyclohexyl)-2-oxobutanamide] | 156 °C |
| COCC(=O)N[C@H]1CC[C@H](CCN2CCN(c3cccc(F)c3F)CC2)CC1 [Example 91, N-(4-{2-[4-(2,3-Difluorophenyl)-piperazin-1-yl]ethyl}cyclohexyl)-2-methoxyacetamide] | 155 °C |
| COCCCC(=O)N[C@H]1CC[C@H](CCN2CCN(c3cc(F)c(F)c(F)c3F)CC2)CC1 [Example 93, 4-Methoxy-N-(4-{2-[4-(2,3,4,5-tetrafluorophenyl)piperazin-1-yl]ethyl}cyclohexyl)butyramide] | 201 °C |
| CC(C)OCC(=O)N[C@H]1CC[C@H](CCN2CCN(c3ccccc3F)CC2)CC1 [Example 97, N-(4-{2-[4-(2-Fluorophenyl)-piperazin-1-yl]ethyl}cyclohexyl)-2-isopropoxyacetamide] | 96 °C |
| COCCCC(=O)N[C@H]1CC[C@H](CCN2CCN(c3ccccc3)CC2)CC1 [Example 99, 4-Methoxy-N-{4-[2-(4-phenylpiperazin-1-yl)ethyl]cyclohexyl}butanamide] | 172 °C |
| CCOCC(=O)N[C@H]1CC[C@H](CCN2CCN(c3cccc(C(F)(F)F)c3C#N)CC2)CC1 [Example 102, N-(4-{2-[4-(2-Cyano-3-trifluoromethylphenyl)piperazin-1-yl]ethyl}cyclohexyl)-2-ethoxyacetamide] | 173 °C |
| N#CCC(=O)N[C@H]1CC[C@H](CCN2CCN(c3cc(C(F)(F)F)cc(C(F)(F)F)c3)CC2)CC1 [Example 107, N-(4-{2-[4-(3,5-Bistrifluoro-methylphenyl)piperazin-1-yl]ethyl}cyclohexyl)-2-cyanoacetamide] | 196 °C |
| CC(C)(C)c1cc(N2CCN(CC[C@H]3CC[C@H](NC(=O)CC#N)CC3)CC2)nc(C(C)(C)C)n1 [Example 111, 2-Cyano-N-(4-{2-[4-(2,6-di-tert-butylpyrimidin-4-yl)piperazin-1-yl]ethyl}cyclohexyl)acetamide trans/cis 65/35] | 145 °C |
| N#CCC(=O)N[C@H]1CC[C@H](CCN2CCN(c3cccc(F)c3F)CC2)CC1 [Example 113, 2-Cyano-N-(4-{2-[4-(2,3-difluorophenyl)piperazin-1-yl]ethyl}cyclohexyl)acetamide] | 190 °C |
| Cc1cccc(N2CCN(CC[C@H]3CC[C@H](NC(=O)CC#N)CC3)CC2)c1C#N [Example 114, 2-Cyano-N-(4-{2-[4-(2-cyano-3-methylphenyl)piperazin-1-yl]ethyl}cyclohexyl)acetamide] | 221 °C |
| Cc1cccc(N2CCN(CC[C@H]3CC[C@H](NC(=O)CC(F)(F)F)CC3)CC2)c1C#N [Example 115, N-(4-{2-[4-(2-Cyano-3-methylphenyl)piperazin-1-yl]ethyl}cyclohexyl)-3,3,3-trifluoropropanamide] | 207 °C |
| N#CCC(=O)N[C@H]1CC[C@H](CCN2CCN(c3cccc4c3CCCC4)CC2)CC1 [Example 116, 2-Cyano-N-(4-{2-[4-(5,6,7,8-tetrahydronaphthalen-1-yl)piperazin-1-yl]ethyl}cyclohexyl)acetamide] | 175 °C |
| COCC(=O)N[C@H]1CC[C@H](CCN2CCN(c3cc(C(F)(F)F)cc(C(F)(F)F)c3)CC2)CC1 [Example 118, N-(4-{2-[4-(3,5-Bistrifluoro-methylphenyl)piperazin-1-yl]ethyl}cyclohexyl)-2-methoxyacetamide] | 164 °C |
| CCOCC(=O)N[C@H]1CC[C@H](CCN2CCN(c3cc(C(C)(C)C)nc(C(C)(C)C)n3)CC2)CC1 [Example 121, N-(4-{2-[4-(2,6-Di-tert-butylpyrimidin-4-yl)piperazin-1-yl]ethyl}cyclohexyl)-2-ethoxyacetamide] | 104 °C |

Now from value to compound:

| melting point | Structure (SMILES) |
| --- | --- |
| 167 °C | N#Cc1ccccc1N1CCN(CC[C@H]2CC[C@H](NC(=O)C3=CCCC3)CC2)CC1 [Example 74, Cyclopent-1-enecarboxylic acid (4-{2-[4-(2-cyanophenyl)-piperazin-1-yl]ethyl}cyclohexyl)-amide] |
| 175 °C | COCCCC(=O)N[C@H]1CC[C@H](CCN2CCN(c3ccccc3F)CC2)CC1 [Example 76, N-(4-{2-[4-(2-Fluorophenyl)-piperazin-1-yl]ethyl}cyclohexyl)-4-methoxybutanamide] |
| 84 °C | CCOCC(=O)N[C@H]1CC[C@H](CCN2CCC(c3cccc(C(F)(F)F)c3)CC2)CC1 [Example 83, 2-Ethoxy-N-(4-{2-[4-(3-trifluoromethylphenyl)piperidin-1-yl]ethyl}cyclohexyl)acetamide] |
| 207 °C | O=C(CC(F)(F)F)N[C@H]1CC[C@H](CCN2CCN(c3ccccc3F)CC2)CC1 [Example 87, 3,3,3-Trifluoro-N-(4-{2-[4-(2-fluorophenyl)piperazin-1-yl]ethyl}cyclohexyl)propanamide] |
| 172 °C | O=C(COc1ccccc1)N[C@H]1CC[C@H](CCN2CCN(c3ccccc3F)CC2)CC1 [Example 88, N-(4-{2-[4-(2-Fluorophenyl)-piperazin-1-yl]ethyl}cyclohexyl)-2-phenoxyacetamide] |
| 188 °C | N#CCC(=O)N[C@H]1CC[C@H](CCN2CCN(c3cccc(C#N)c3)CC2)CC1 [Example 90, 2-Cyano-N-(4-{2-[4-(3-cyanophenyl)piperazin-1-yl]ethyl}cyclohexyl)acetamide trans/cis 75/25] |
| 180 °C | N#CCCCC(=O)N[C@H]1CC[C@H](CCN2CCN(c3cc(F)c(F)c(F)c3F)CC2)CC1 [Example 98, 4-Cyano-N-(4-{2-[4-(2,3,4,5-tetrafluorophenyl)piperazin-1-yl]ethyl}cyclohexyl)butyramide] |
| 144 °C | CC(C)OCC(=O)N[C@H]1CC[C@H](CCN2CCN(c3cccc(C(F)(F)F)c3C#N)CC2)CC1 [Example 101, N-(4-{2-[4-(2-Cyano-3-trifluoromethylphenyl)piperazin-1-yl]ethyl}cyclohexyl)-2-isopropoxyacetamide] |
| 222 °C | N#CCC(=O)N[C@H]1CC[C@H](CCN2CCN(c3cccc(C(F)(F)F)c3C#N)CC2)CC1 [Example 103, 2-Cyano-N-(4-{2-[4-(2-cyano-3-trifluoromethylphenyl)piperazin-1-yl]ethyl}cyclohexyl)acetamide] |
| 187 °C | CC(=O)NCC(=O)N[C@H]1CC[C@H](CCN2CCN(c3cccc(C(F)(F)F)c3)CC2)CC1 [Example 105, 2-Acetylamino-N-(4-{2-[4-(3-trifluoromethylphenyl)piperazin-1-yl]ethyl}cyclohexyl)acetamide] |
| 135 °C | CCOCC(=O)N[C@H]1CC[C@H](CCN2CCN(c3cc(C(F)(F)F)cc(C(F)(F)F)c3)CC2)CC1 [Example 108, N-(4-{2-[4-(3,5-Bistrifluoro-methylphenyl)piperazin-1-yl]ethyl}cyclohexyl)-2-ethoxyacetamide] |
| 140 °C | CCOCC(=O)N[C@H]1CC[C@H](CCN2CCN(c3cccc(F)c3F)CC2)CC1 [Example 112, N-(4-{2-[4-(2,3-Difluorophenyl)-piperazin-1-yl]ethyl}cyclohexyl)-2-ethoxyacetamide] |
| 91 °C | CCOCC(=O)N[C@H]1CC[C@H](CCN2CCN(c3cccc4c3CCCC4)CC2)CC1 [Example 117, 2-Ethoxy-N-(4-{2-[4-(5,6,7,8-tetrahydronaphthalen-1-yl)piperazin-1-yl]ethyl}-cyclohexyl)acetamide] |
| 172 °C | COCC(=O)N[C@H]1CC[C@H](CCN2CCN(c3cccc(C(F)(F)F)c3C#N)CC2)CC1 [Example 119, N-(4-{2-[4-(2-Cyano-3-trifluoromethylphenyl)piperazin-1-yl]ethyl}cyclohexyl)-2-methoxyacetamide] |
